According to US20070049564A1 (Wyeth, priority 2005, published 2007):
In brackets after ≈: the same amount, converted by molar mass. Like-named read-outs stand apart in the source and are kept apart here.

Key:
[1] = system: S. aureus GC 1131; test: MIC, broth microdilution; conditions: Staphylococcus aureus
[2] = system: S. agalactiae GC 4564; test: MIC, broth microdilution; conditions: Streptococcus agalactiae
[3] = system: E. coli GC 2234; test: MIC, broth microdilution; conditions: Escherichia coli
[4] = system: E. faecalis GC 4555; test: MIC, broth microdilution; conditions: Enterococcus faecalis
[5] = system: S. pyogenes GC 4563; test: MIC, broth microdilution; conditions: Streptococcus pyogenes
[6] = system: P. aeruginosa GC 2214; test: MIC, broth microdilution; conditions: Pseudomonas aeruginosa
[7] = system: E. coli GC 2272; test: MIC, broth microdilution; conditions: Escherichia coli
[8] = system: E. coli GC 4559; test: MIC, broth microdilution; conditions: Escherichia coli
[9] = system: S. epidermidis GC 4935; test: MIC, broth microdilution; conditions: Staphylococcus epidermidis
[10] = system: S. pneumoniae* GC 4465; test: MIC, broth microdilution; conditions: Streptococcus pneumoniae
[11] = system: S. pneumoniae+ GC 4465; test: MIC, broth microdilution; conditions: Streptococcus pneumoniae
[12] = system: E. coli GC 2236; test: MIC, broth microdilution; conditions: Escherichia coli
[13] = system: E. coli GC 2232; test: MIC, broth microdilution; conditions: Escherichia coli
[14] = system: E. coli GC 2271; test: MIC, broth microdilution; conditions: Escherichia coli
Protocol: (§1) Antimicrobial susceptibility testing. The in vitro activities of the antibiotics are determined by the broth microdilution method as recommended by the National Committee for Clinical Laboratory Standards (NCCLS) (1). Mueller-Hinton II broth (MHBII)(BBL Cockeysville, Md.) is the medium employed in the testing procedures. Microtiter plates containing serial dilutions of each antimicrobial agent are inoculated with each organism to yield the appropriate density (10^5 CFU/ml) in a 100 μl final volume. The plates are incubated for 18-22 hours at 35° C. in ambient air.
(§2) Representative compounds were first incubated in mouse serum for an hour prior to the in vitro testing against a panel of selected gram-positive and gram-negative bacteria strains. All compounds were also pre-incubated in water for an hour prior to testing as control.

[15] = system: S. aureus GC 6335; test: MIC, broth microdilution; conditions: Staphylococcus aureus
[16] = system: E. coli GC 3226; test: MIC, broth microdilution; conditions: Escherichia coli
[17] = system: E. coli GC 2203; test: MIC, broth microdilution; conditions: Escherichia coli
[18] = system: Staph. aureus Smith; test: In vivo activity (oral, iv; ED50) against Staph. aureus Smith in mice
Protocol: Representative examples of compounds of Formula I were tested for the oral efficacy using S. aureus Smith in mice.

[19] = system: E. faecalis GC 2267; test: MIC, broth microdilution; conditions: Enterococcus faecalis
[20] = system: E. faecalis GC 2265; test: MIC, broth microdilution; conditions: Enterococcus faecalis
Protocol: as §1, §2

[21] = read-out: MINIMAL INHIBITORY CONCENTRATION MIC, pre-incubated in Human Serum
[22] = read-out: MINIMAL INHIBITORY CONCENTRATION MIC, pre-incubated in Mouse Serum
[23] = read-out: MINIMAL INHIBITORY CONCENTRATION MIC, pre-incubated in Water

## CCC(C)(C)C(=O)OCOC(=O)N(CC(=O)Nc1cc(N(C)C)c2c(c1O)C(=O)C1=C(O)[C@]3(O)C(=O)C(C(N)=O)=C(O)[C@@H](N(C)C)[C@@H]3C[C@@H]1C2)C(C)(C)C [Example 44, ({[(2-{[(5aR,6aS,7S,10aS)-9-(aminocarbonyl)-4,7-bis(dimethylamino)-1,8,10a,11-tetrahydroxy-10,12-dioxo-5,5a,6,6a,7,10,10a,12-octahydrotetracen-2-yl]amino}-2-oxoethyl)(tert-butyl)amino]carbonyl}oxy)methyl 2,2-dimethylbutanoate]
[1]; GC1131, read-out: MINIMAL INHIBITORY CONCENTRATION MIC, pre-incubated in Human Serum
  MIC: 2 µg/mL (≈ 2.64 µM)
[1]; GC1131, read-out: MINIMAL INHIBITORY CONCENTRATION MIC, pre-incubated in Mouse Serum
  MIC: 2 µg/mL (≈ 2.64 µM)
[1]; GC1131, read-out: MINIMAL INHIBITORY CONCENTRATION MIC, pre-incubated in Water
  MIC: 4 µg/mL (≈ 5.28 µM)
[2]; GC4564, read-out: MINIMAL INHIBITORY CONCENTRATION MIC, pre-incubated in Human Serum
  MIC: 4 µg/mL (≈ 5.28 µM)
[2]; GC4564, read-out: MINIMAL INHIBITORY CONCENTRATION MIC, pre-incubated in Mouse Serum
  MIC: 1 µg/mL (≈ 1.32 µM)
[2]; GC4564, read-out: MINIMAL INHIBITORY CONCENTRATION MIC, pre-incubated in Water
  MIC: 4 µg/mL (≈ 5.28 µM)
[3]; GC2234, read-out: MINIMAL INHIBITORY CONCENTRATION MIC, pre-incubated in Human Serum
  MIC: > 64 µg/mL
[3]; GC2234, read-out: MINIMAL INHIBITORY CONCENTRATION MIC, pre-incubated in Mouse Serum
  MIC: 2 µg/mL (≈ 2.64 µM)
[3]; GC2234, read-out: MINIMAL INHIBITORY CONCENTRATION MIC, pre-incubated in Water
  MIC: > 64 µg/mL
[4]; GC4555, read-out: MINIMAL INHIBITORY CONCENTRATION MIC, pre-incubated in Human Serum
  MIC: 4 µg/mL (≈ 5.28 µM)
[4]; GC4555, read-out: MINIMAL INHIBITORY CONCENTRATION MIC, pre-incubated in Mouse Serum
  MIC: 2 µg/mL (≈ 2.64 µM)
[4]; GC4555, read-out: MINIMAL INHIBITORY CONCENTRATION MIC, pre-incubated in Water
  MIC: 4 µg/mL (≈ 5.28 µM)
[5]; GC4563, read-out: MINIMAL INHIBITORY CONCENTRATION MIC, pre-incubated in Human Serum
  MIC: 4 µg/mL (≈ 5.28 µM)
[5]; GC4563, read-out: MINIMAL INHIBITORY CONCENTRATION MIC, pre-incubated in Mouse Serum
  MIC: 1 µg/mL (≈ 1.32 µM)
[5]; GC4563, read-out: MINIMAL INHIBITORY CONCENTRATION MIC, pre-incubated in Water
  MIC: 2 µg/mL (≈ 2.64 µM)
[6]; GC2214, read-out: MINIMAL INHIBITORY CONCENTRATION MIC, pre-incubated in Human Serum
  MIC: > 64 µg/mL
[6]; GC2214, read-out: MINIMAL INHIBITORY CONCENTRATION MIC, pre-incubated in Mouse Serum
  MIC: > 64 µg/mL
[6]; GC2214, read-out: MINIMAL INHIBITORY CONCENTRATION MIC, pre-incubated in Water
  MIC: > 64 µg/mL
[7]; GC2272, read-out: MINIMAL INHIBITORY CONCENTRATION MIC, pre-incubated in Human Serum
  MIC: > 64 µg/mL
[7]; GC2272, read-out: MINIMAL INHIBITORY CONCENTRATION MIC, pre-incubated in Mouse Serum
  MIC: 2 µg/mL (≈ 2.64 µM)
[7]; GC2272, read-out: MINIMAL INHIBITORY CONCENTRATION MIC, pre-incubated in Water
  MIC: > 64 µg/mL
[8]; GC4559, read-out: MINIMAL INHIBITORY CONCENTRATION MIC, pre-incubated in Human Serum
  MIC: > 64 µg/mL
[8]; GC4559, read-out: MINIMAL INHIBITORY CONCENTRATION MIC, pre-incubated in Mouse Serum
  MIC: 4 µg/mL (≈ 5.28 µM)
[8]; GC4559, read-out: MINIMAL INHIBITORY CONCENTRATION MIC, pre-incubated in Water
  MIC: > 64 µg/mL
[9]; GC4935, read-out: MINIMAL INHIBITORY CONCENTRATION MIC, pre-incubated in Human Serum
  MIC: 4 µg/mL (≈ 5.28 µM)
[9]; GC4935, read-out: MINIMAL INHIBITORY CONCENTRATION MIC, pre-incubated in Mouse Serum
  MIC: 2 µg/mL (≈ 2.64 µM)
[9]; GC4935, read-out: MINIMAL INHIBITORY CONCENTRATION MIC, pre-incubated in Water
  MIC: 4 µg/mL (≈ 5.28 µM)
[10]; [21]
  MIC: 2 µg/mL (≈ 2.64 µM)
[10]; [22]
  MIC: 1 µg/mL (≈ 1.32 µM)
[10]; [23]
  MIC: 2 µg/mL (≈ 2.64 µM)
[11]; [21]
  MIC: 4 µg/mL (≈ 5.28 µM)
[11]; [22]
  MIC: 4 µg/mL (≈ 5.28 µM)
[11]; [23]
  MIC: 4 µg/mL (≈ 5.28 µM)
[12]; GC2236, read-out: MINIMAL INHIBITORY CONCENTRATION MIC, pre-incubated in Human Serum
  MIC: > 64 µg/mL
[12]; GC2236, read-out: MINIMAL INHIBITORY CONCENTRATION MIC, pre-incubated in Mouse Serum
  MIC: 2 µg/mL (≈ 2.64 µM)
[12]; GC2236, read-out: MINIMAL INHIBITORY CONCENTRATION MIC, pre-incubated in Water
  MIC: > 64 µg/mL
[13]; GC2232, read-out: MINIMAL INHIBITORY CONCENTRATION MIC, pre-incubated in Human Serum
  MIC: > 64 µg/mL
[13]; GC2232, read-out: MINIMAL INHIBITORY CONCENTRATION MIC, pre-incubated in Mouse Serum
  MIC: 2 µg/mL (≈ 2.64 µM)
[13]; GC2232, read-out: MINIMAL INHIBITORY CONCENTRATION MIC, pre-incubated in Water
  MIC: > 64 µg/mL
[14]; GC2271, read-out: MINIMAL INHIBITORY CONCENTRATION MIC, pre-incubated in Human Serum
  MIC: > 64 µg/mL
[14]; GC2271, read-out: MINIMAL INHIBITORY CONCENTRATION MIC, pre-incubated in Mouse Serum
  MIC: 2 µg/mL (≈ 2.64 µM)
[14]; GC2271, read-out: MINIMAL INHIBITORY CONCENTRATION MIC, pre-incubated in Water
  MIC: > 64 µg/mL
[15]; GC6335, read-out: MINIMAL INHIBITORY CONCENTRATION MIC, pre-incubated in Human Serum
  MIC: 4 µg/mL (≈ 5.28 µM)
[15]; GC6335, read-out: MINIMAL INHIBITORY CONCENTRATION MIC, pre-incubated in Mouse Serum
  MIC: 2 µg/mL (≈ 2.64 µM)
[15]; GC6335, read-out: MINIMAL INHIBITORY CONCENTRATION MIC, pre-incubated in Water
  MIC: 4 µg/mL (≈ 5.28 µM)
[16]; GC3226, read-out: MINIMAL INHIBITORY CONCENTRATION MIC, pre-incubated in Human Serum
  MIC: > 64 µg/mL
[16]; GC3226, read-out: MINIMAL INHIBITORY CONCENTRATION MIC, pre-incubated in Mouse Serum
  MIC: 4 µg/mL (≈ 5.28 µM)
[16]; GC3226, read-out: MINIMAL INHIBITORY CONCENTRATION MIC, pre-incubated in Water
  MIC: > 64 µg/mL
[17]; GC2203, read-out: MINIMAL INHIBITORY CONCENTRATION MIC, pre-incubated in Human Serum
  MIC: > 64 µg/mL
[17]; GC2203, read-out: MINIMAL INHIBITORY CONCENTRATION MIC, pre-incubated in Mouse Serum
  MIC: 2 µg/mL (≈ 2.64 µM)
[17]; GC2203, read-out: MINIMAL INHIBITORY CONCENTRATION MIC, pre-incubated in Water
  MIC: > 64 µg/mL
[18]; Staphylococcus aureus, in Mus musculus, iv, read-out: ED50 SIV (Staph aureus Smith)
  ED50: 0.75 mg/kg
[18]; Staphylococcus aureus, in Mus musculus, po, read-out: ED50 SOD (Staph aureus Smith)
  ED50: 4 mg/kg
[18]; Staphylococcus aureus, in Mus musculus, po, read-out: ED50 Staph Smith SOD
  ED50: 4 mg/kg
[18]; iv, read-out: ED50 Staph Smith SIV
  ED50: 0.75 mg/kg
[19]; GC2267, read-out: MINIMAL INHIBITORY CONCENTRATION MIC, pre-incubated in Human Serum
  MIC: 4 µg/mL (≈ 5.28 µM)
[19]; GC2267, read-out: MINIMAL INHIBITORY CONCENTRATION MIC, pre-incubated in Mouse Serum
  MIC: 2 µg/mL (≈ 2.64 µM)
[19]; GC2267, read-out: MINIMAL INHIBITORY CONCENTRATION MIC, pre-incubated in Water
  MIC: 4 µg/mL (≈ 5.28 µM)
[20]; GC2265, read-out: MINIMAL INHIBITORY CONCENTRATION MIC, pre-incubated in Human Serum
  MIC: 2 µg/mL (≈ 2.64 µM)
[20]; GC2265, read-out: MINIMAL INHIBITORY CONCENTRATION MIC, pre-incubated in Mouse Serum
  MIC: 2 µg/mL (≈ 2.64 µM)
[20]; GC2265, read-out: MINIMAL INHIBITORY CONCENTRATION MIC, pre-incubated in Water
  MIC: 4 µg/mL (≈ 5.28 µM)
